Test results reported in ChEMBL document CHEMBL3861993, “Alternative core development around the tetracyclic indole class of HCV NS5A inhibitors” (Bioorg Med Chem Lett, 2016).

Assays:
[1] = system: Hepatitis C virus subtype 2b; experiment: Inhibition of HCV genotype 2b NS5A harboring methionine at position 31 after 3 day incubation by RT-PCR-cell-based HCV replicon assay
[2] = system: Nonstructural protein 5A (Hepatitis C virus), Q5L478 [UNDEFINED MUTATION]; experiment: Inhibition of HCV genotype 1a NS5A L31V mutant after 3 day incubation by RT-PCR-cell-based HCV replicon assay; details: Hepatitis C virus subtype 1a
[3] = system: Hepatitis C virus subtype 3a; experiment: Inhibition of HCV genotype 3a NS5A after 3 day incubation by RT-PCR-cell-based HCV replicon assay
[4] = system: T1, Nonstructural protein 5A (Hepatitis C virus), Q5L478 [Y93H]; experiment: Inhibition of HCV genotype 1a NS5A Y93H mutant after 3 day incubation by RT-PCR-cell-based HCV replicon assay; details: Hepatitis C virus subtype 1a
T1 sequence (whole entry): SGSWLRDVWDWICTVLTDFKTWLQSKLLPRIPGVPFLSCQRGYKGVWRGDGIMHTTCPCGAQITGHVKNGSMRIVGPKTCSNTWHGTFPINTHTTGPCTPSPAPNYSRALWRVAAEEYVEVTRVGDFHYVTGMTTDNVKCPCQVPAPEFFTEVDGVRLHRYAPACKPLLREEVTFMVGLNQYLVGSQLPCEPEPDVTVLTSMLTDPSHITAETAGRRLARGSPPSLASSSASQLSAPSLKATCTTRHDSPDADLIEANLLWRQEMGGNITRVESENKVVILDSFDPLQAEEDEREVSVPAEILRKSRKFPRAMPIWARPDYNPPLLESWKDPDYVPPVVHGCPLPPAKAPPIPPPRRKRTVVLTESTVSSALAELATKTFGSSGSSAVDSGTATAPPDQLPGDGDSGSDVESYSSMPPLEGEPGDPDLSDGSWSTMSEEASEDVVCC

[5] = system: Hepatitis C virus subtype 4a; experiment: Inhibition of HCV genotype 4a NS5A after 3 day incubation by RT-PCR-cell-based HCV replicon assay
[6] = system: Hepatitis C virus subtype 1a; experiment: Inhibition of HCV genotype 1a NS5A after 3 day incubation by RT-PCR-cell-based HCV replicon assay
[7] = AUC in rat at 3 mg/kg, iv or 10 mg/kg, po; type: ADME, organism-based; details: in vivo
[8] = Oral bioavailability in rat at 10 mg/kg; type: ADME, organism-based; details: in vivo
[9] = Oral bioavailability in rat at 5 mg/kg; type: ADME, organism-based; details: in vivo
[10] = Cmax in rat at 2.5 mg/kg, iv or 5 mg/kg, po; type: ADME, organism-based; details: in vivo
[11] = AUC in rat at 5 mg/kg, po; type: ADME, organism-based; details: in vivo
[12] = Clearance in rat at 2.5 mg/kg, iv or 5 mg/kg, po; type: ADME, organism-based; details: in vivo
[13] = Half life in rat at 2.5 mg/kg, iv or 5 mg/kg, po; type: ADME, organism-based; details: in vivo
[14] = Cmax in rat at 2 mg/kg, iv or 10 mg/kg, po; type: ADME, organism-based; details: in vivo
[15] = AUC in rat at 10 mg/kg, po; type: ADME, organism-based; details: in vivo
[16] = Clearance in rat at 2 mg/kg, iv or 10 mg/kg, po; type: ADME, organism-based; details: in vivo
[17] = Half life in rat at 2 mg/kg, iv or 10 mg/kg, po; type: ADME, organism-based; details: in vivo

SMILES | EC90 [1] [nM] | EC90 [2] [nM] | EC90 [3] [nM] | EC90 [4] [nM] | EC90 [5] [nM] | EC90 [6] [nM] | AUC [7] [µM·h] | bioavailability [8] [%] | bioavailability [9] [%] | Cmax [10] [µM] | AUC [11] [µM·h] | clearance [12] [L/h/kg] | half-life [13] [h] | Cmax [14] [µM] | AUC [15] [µM·h] | clearance [16] [L/h/kg] | half-life [17] [h]
COC(=O)N[C@H](C(=O)N1CCC[C@H]1c1ncc(-c2ccc3c(c2)OCn2c-3cc3cc(-c4cnc([C@@H]5CCCN5C(=O)[C@@H](NC(=O)OC)C(C)C)[nH]4)ccc32)[nH]1)C(C)C | 75.7 | 6.5 | > 1 | > 100 | 0.18 | 0.02 |  |  |  |  |  |  |  |  |  |  | 
COC(=O)N[C@H](C(=O)N1CCC[C@H]1c1ncc(-c2ccc3c(c2)Oc2ccc(-c4cnc([C@@H]5CCCN5C(=O)[C@@H](NC(=O)OC)C(C)C)[nH]4)c4ccn-3c24)[nH]1)C(C)C |  | 90.2 | 0.69 | 122 | 0.31 | 0.06 |  |  |  |  |  |  |  |  |  |  | 
COC(=O)N[C@H](C(=O)N1CCC[C@H]1c1ncc(-c2ccc3c(c2)OCc2c-3c(=O)oc3cc(-c4cnc([C@@H]5CCCN5C(=O)[C@@H](NC(=O)OC)C(C)C)[nH]4)ccc23)[nH]1)C(C)C | 113 | 58.6 | > 1 | > 50 | 0.18 | 0.01 |  |  |  |  |  |  |  |  |  |  | 
COC(=O)N[C@H](C(=O)N1CCC[C@H]1c1ncc(-c2cc3c4c(c2)CCc2cc(-c5cnc([C@@H]6CC(F)(F)CN6C(=O)[C@@H](NC(=O)OC)C(C)C)[nH]5)cc(c2-4)CC3)[nH]1)C(C)C | > 100 | 20.7 | > 10 | 30.2 | 0.6 | 0.07 |  |  |  |  |  |  |  |  |  |  | 
COC(=O)N[C@H](C(=O)N1CCC[C@H]1c1ncc(-c2ccc3c(c2)Oc2ccc(-c4cnc([C@@H]5CCCN5C(=O)[C@@H](NC(=O)OC)C(C)C)[nH]4)c4c2N3CCC4)[nH]1)C(C)C | 100 | 100 | > 10 | 441 | 4.81 | > 0.1 |  |  |  |  |  |  |  |  |  |  | 
COC(=O)N[C@H](C(=O)N1CCC[C@H]1c1ncc(-c2ccc3c(c2)Oc2ccc(-c4cnc([C@@H]5CC(F)(F)CN5C(=O)[C@@H](NC(=O)OC)C(C)C)[nH]4)c4ccn-3c24)[nH]1)C(C)C | 342 | 17.2 |  | 22 |  | 0.02 | 3.98 | 15 |  |  |  |  |  |  |  |  | 
COC(=O)N[C@H](C(=O)N1CCC[C@H]1c1nc(-c2ccc3c(c2)O[C@@H](c2ccccc2)n2c-3cc3cc(-c4c[nH]c([C@@H]5CCCN5C(=O)[C@@H](NC(=O)OC)C(C)C)n4)ccc32)c[nH]1)C(C)C | 11 |  | 0.12 |  | 0.016 | 0.006 |  |  |  |  |  |  |  |  |  |  | 
COC(=O)N[C@H](C(=O)N1CCC[C@H]1c1ncc(-c2ccc3c(c2)Oc2ccc(-c4cnc([C@@H]5CCCN5C(=O)[C@@H](NC(=O)OC)C(C)C)[nH]4)c4c2N3CC4)[nH]1)C(C)C |  | 100 | 4.42 | 685 | 8.17 | > 0.1 |  |  |  |  |  |  |  |  |  |  | 
COC(=O)N[C@H](C(=O)N1CCC[C@H]1c1ncc(-c2ccc3c(c2)OC(c2ccccc2)C2=C3COc3cc(-c4cnc([C@@H]5CCCN5C(=O)[C@@H](NC(=O)OC)C(C)C)[nH]4)ccc32)[nH]1)C(C)C (stereo not given in full) | 8.46 | 0.28 | 0.56 | > 100 | 0.17 | 0.017 |  |  |  |  |  |  |  |  |  |  | 
COC(=O)N[C@H](C(=O)N1CCC[C@H]1c1ncc(-c2ccc3c(c2)OC(C)C2=C3COc3cc(-c4cnc([C@@H]5CCCN5C(=O)[C@@H](NC(=O)OC)C(C)C)[nH]4)ccc32)[nH]1)C(C)C (stereo not given in full) | 28.1 | 1.52 |  | 55.1 |  | 0.028 |  |  |  |  |  |  |  |  |  |  | 
COC(=O)N[C@H](C(=O)N1CCC[C@H]1c1ncc(-c2ccc3c(c2)Oc2ccc(-c4cnc([C@@H]5CCCN5C(=O)[C@@H](NC(=O)OC)C(C)C)[nH]4)c4occ-3c24)[nH]1)C(C)C | 100 | 100 | 0.32 | 132 | 0.31 | 0.03 |  |  | 34 | 0.83 | 4.28 | 0.51 | 1.9 |  |  |  | 
COC(=O)N[C@H](C(=O)N1CCC[C@H]1c1ncc(-c2cc3c4c(c2)CCc2cc(-c5cnc([C@@H]6CCCN6C(=O)[C@@H](NC(=O)OC)C(C)C)[nH]5)cc(c2-4)CC3)[nH]1)C(C)C | > 100 | 18.9 | 2 | 57 | 0.8 | 0.05 |  |  |  |  |  |  |  |  |  |  | 
COC(=O)N[C@H](C(=O)N1CCC[C@H]1c1ncc(-c2cc3c4c(c2)CCc2cc(-c5cnc([C@@H]6C[C@@H](F)CN6C(=O)[C@@H](NC(=O)OC)C(C)C)[nH]5)cc(c2-4)CC3)[nH]1)C(C)C | > 100 | 26.2 | 6 | 22.7 | 5.5 | 0.052 |  |  |  |  |  |  |  |  |  |  | 
COC(=O)N[C@H](C(=O)N1CCC[C@H]1c1ncc(-c2ccc3c(c2)Oc2ccc(-c4cnc([C@@H]5CCCN5C(=O)[C@@H](NC(=O)OC)C(C)C)[nH]4)c4cnn-3c24)[nH]1)C(C)C | 100 | 62.3 | 1.59 | 124 | 0.76 | 0.04 |  |  |  |  |  |  |  |  |  |  | 
COC(=O)N[C@H](C(=O)N1CCC[C@H]1c1ncc(-c2ccc3c(c2)OCC2=C3COc3cc(-c4cnc([C@@H]5CCCN5C(=O)[C@@H](NC(=O)OC)C(C)C)[nH]4)ccc32)[nH]1)C(C)C | 24.7 | 0.33 | > 1 | > 100 | 0.18 | 0.01 |  | 14 |  |  |  |  |  | 0.66 | 5.57 | 0.318 | 2.7
COC(=O)N[C@H](C(=O)N1CCC[C@H]1c1ncc(-c2ccc3c(c2)Oc2ccc(-c4cnc([C@@H]5CCCN5C(=O)[C@@H](NC(=O)OC)C(C)C)[nH]4)c4c2N3CCO4)[nH]1)C(C)C | 100 | 100 | 4.69 | 361 | 2.48 | 0.005 |  |  |  |  |  |  |  |  |  |  | 
COC(=O)N[C@H](C(=O)N1CCC[C@H]1c1ncc(-c2ccc3c(c2)OC(C2CC2)C2=C3COc3cc(-c4cnc([C@@H]5CCCN5C(=O)[C@@H](NC(=O)OC)C(C)C)[nH]4)ccc32)[nH]1)C(C)C (stereo not given in full) | 5.2 | 1.7 | 10.7 | 41 |  | 0.063 |  |  |  |  |  |  |  |  |  |  | 
COC(=O)N[C@H](C(=O)N1CCC[C@H]1c1ncc(-c2ccc3c(c2)OC(c2cccc(OC)c2)C2=C3COc3cc(-c4cnc([C@@H]5CCCN5C(=O)[C@@H](NC(=O)OC)C(C)C)[nH]4)ccc32)[nH]1)C(C)C (stereo not given in full) | 4.7 | 0.3 | 1.93 | 12 |  | 0.039 |  |  |  |  |  |  |  |  |  |  | 
